{"source": "patent US6518290B1", "about": "“Substituted oxazoles and thiazoles derivatives as HPPAr alpha activators” (priority 1999, dated 2003)", "key": {"[1]": {"biological_target": "T1, human PPAR gamma (Homo sapiens, UniProt P37231)", "T1 construct": "expressed in transfected cells; host or cells: CV-1 cells", "T1 sequence (P37231 238-503 limits assumed)": "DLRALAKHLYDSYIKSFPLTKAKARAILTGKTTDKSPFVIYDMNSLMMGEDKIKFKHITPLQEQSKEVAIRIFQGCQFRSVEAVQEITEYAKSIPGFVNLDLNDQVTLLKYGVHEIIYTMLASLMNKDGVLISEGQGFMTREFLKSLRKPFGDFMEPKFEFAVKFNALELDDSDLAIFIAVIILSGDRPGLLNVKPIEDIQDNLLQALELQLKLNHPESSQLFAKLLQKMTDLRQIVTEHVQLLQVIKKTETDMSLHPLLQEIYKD", "assay": "PPAR transient transfection (transactivation) assay in CV-1 cells, hPPAR gamma", "type": "cell-based", "details": "PPAR LBD-GAL4 chimera, SPAP reporter, 24 h with compound, read-out: human γEC50", "description": "(§1) Compounds were screened for functional potency in transient transfection assays in CV-1 cells for their ability to activate the PPAR subtypes (transactivation assay). A previously established chimeric receptor system was utilized to allow comparison of the relative transcriptional activity of the receptor subtypes on the same target gene and to prevent endogenous receptor activation from complicating the interpretation of results. See, for example, Lehmann, J. M.; Moore, L. B.; Smith-Oliver, T. A.; Wilkison, W. O.; Willson, T. M.; Kliewer, S. A., An antidiabetic thiazolidinedione is a high affinity ligand for peroxisome proliferator-activated receptor γ (PPARγ), J. Biol. Chem., 1995, 270, 12953-6. The ligand binding domains for murine and human PPAR alpha, PPAR gamma, and PPAR delta were each fused to the yeast transcription factor GAL4 DNA binding domain. CV-1 cells were transiently transfected with expression vectors for the respective PPAR chimera along with a reporter construct containing five copies of the GAL4 DNA binding site driving expression of secreted placental alkaline phosphatase (SPAP) and β-galactosidase. After 16 h, the medium was exchanged to DME medium supplemented with 10% delipidated fetal calf serum and the test compound at the appropriate concentration. After an additional 24 h, cell extracts were prepared and assayed for alkaline phosphatase and β-galactosidase activity. Alkaline phosphatase activity was corrected for transfection efficiency using the β-galactosidase activity as an internal standard (see, for example, Kliewer, S. A., et. al. Cell 83, 813-819 (1995)). Rosiglitazone (BRL 49653) was used as a positive control in the hPPAR gamma assay. The positive control in the hPPAR alpha assays was 2-(2-methyl-3-[3-{3-(4-cyclohexylamino)-[6-(4-fluorophenylpiperazin-1-yl)][1,3,5]triazin-2-ylamino}propyl]phenylthio)-2-methylpropionic acid. The positive control for PPAR delta assays was 2-{2-methyl-4-[({4-methyl-2-{trifluoromethyl)phenyl]-1,3-thiazol-5-yl}methyl)sulfanyl]phenoxy}acetic acid."}, "[2]": {"biological_target": "T2, human PPAR delta (Homo sapiens, UniProt Q03181)", "T2 construct": "expressed in transfected cells; host or cells: CV-1 cells", "T2 sequence (Q03181 211-439 limits assumed)": "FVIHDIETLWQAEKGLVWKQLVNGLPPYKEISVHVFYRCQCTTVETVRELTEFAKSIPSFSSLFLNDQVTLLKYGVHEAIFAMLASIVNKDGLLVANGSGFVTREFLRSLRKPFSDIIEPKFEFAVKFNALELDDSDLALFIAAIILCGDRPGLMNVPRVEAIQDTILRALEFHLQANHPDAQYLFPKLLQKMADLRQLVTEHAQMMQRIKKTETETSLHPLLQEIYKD", "assay": "PPAR transient transfection (transactivation) assay in CV-1 cells, PPAR delta", "type": "cell-based", "details": "PPAR LBD-GAL4 chimera, SPAP reporter, 24 h with compound, read-out: human δEC50", "description": "as §1"}, "[3]": {"biological_target": "T3, human PPAR alpha (Homo sapiens, UniProt Q07869)", "T3 construct": "expressed in transfected cells; host or cells: CV-1 cells", "T3 sequence (Q07869 239-466 limits assumed)": "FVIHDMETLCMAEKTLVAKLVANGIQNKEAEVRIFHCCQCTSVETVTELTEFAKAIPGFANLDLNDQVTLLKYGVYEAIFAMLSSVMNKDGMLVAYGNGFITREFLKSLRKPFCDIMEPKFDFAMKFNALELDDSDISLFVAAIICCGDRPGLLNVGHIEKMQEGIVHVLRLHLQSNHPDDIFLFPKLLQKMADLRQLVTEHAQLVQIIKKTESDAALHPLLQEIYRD", "assay": "PPAR transient transfection (transactivation) assay in CV-1 cells, hPPAR alpha", "type": "cell-based", "details": "PPAR LBD-GAL4 chimera, SPAP reporter, 24 h with compound, read-out: human αEC50", "description": "as §1, with “Alkaline phosphatase activity was corrected for transfection efficiency using the β-galactosidase activity as an internal standard (see, for example, Kliewer, S. A., et. al. Cell 83, 813-819 (1995)).” left out"}}, "data": [{"smiles": "Cc1nc(-c2ccc(F)cc2)sc1C(=O)NCc1ccc(OC(C)(C)C(=O)O)cc1", "note": "[Example 31, 2-Methyl-2-[4-{[(4-methyl-2-[4-fluorophenyl]-thiazol-5-ylcarbonyl)amino]methyl}phenoxy]propionic Acid]", "values": [{"measurement": "EC50", "setting": "[1]", "value": "≥ 10000", "unit": "nM"}, {"measurement": "EC50", "setting": "[2]", "value": "≥ 10000", "unit": "nM"}, {"measurement": "EC50", "setting": "[3]", "value": 44, "unit": "nM"}, {"measurement": "melting point", "value": 159, "unit": "°C"}]}, {"smiles": "COc1cc(CNC(=O)c2sc(-c3ccc(C(F)(F)F)cc3)nc2C)ccc1OC(C)(C)C(=O)O", "note": "[Example 49, 2-Methyl-2-[2-methoxy-4-{[(4-methyl-2-[4-trifluoromethylphenyl]-thiazol-5-ylcarbonyl)amino]methyl}phenoxy]propionic Acid]", "values": [{"measurement": "EC50", "setting": "[1]", "value": "≥ 10000", "unit": "nM"}, {"measurement": "EC50", "setting": "[2]", "value": 1000, "unit": "nM"}, {"measurement": "EC50", "setting": "[3]", "value": 10, "unit": "nM"}]}]}
